Measured values as given in US20170209489A1, “FAST ACTING INHIBITOR OF GASTRIC ACID SECRETION WITH ENHANCED ACTIVITY” (YALE UNIVERSITY, priority 2014, published 2017).
Like-named read-outs stand apart in the source and are kept apart here.

How the values were obtained:
isolated gastric glands = conditions: for reduction in secretagogue induced proton secretion (proton extrusion, acid production): Carbachol 200 μM, means from 5 rats; for inhibitory effect on secretagogue induced acid secretion, in words: rat gastric glands
Method: (§1) In this series of studies we used glands from rats that have been fasted for 18 hours with free access to water to reduce basal acid secretion to zero. Following isolation the glands were placed in a perfusion chamber that was maintained at 37° C. Prior to exposure to the Zn solution the glands were loaded with the Fluorescent reagent BCECF to monitor intracellular pH, this is based on technology we have used in the lab. In these studies we stimulated acid secretion by exposing the individual glands to 200 μM Carbachol a well characterized activator of acid secretion. In parallel to these studies (Control glands) we exposed glands from the same animal to a solution that contained ZnSO4.7H2O. […] In subsequent studies we then reduced the concentration of ZnSO4.7H2O by an order of magnitude ([…]) and repeated the study. For each dose used a minimum of 5 animals was used. […] We reduced to a concentration of 0.03 μM.

isolated human glands = conditions: for inhibitory effect on secretagogue induced acid secretion, in words: human gastric glands
Method: as §1
Note that doses of 300 μM and 3 μM were used. […] All data are the means from 5 separate human samples.

isolated stomachs = conditions: simultaneous with secretagogue, 15 minute exposure, fasted rats
Method: We took age and sex matched animals for these studies. The stomach was excised and perfused with 0.5 ml of nonbuffered saline solution in vitro with a solution of either 200 μM Carbachol or ZnSO4.7H2O+200 μM Carbachol following a 15 minute perfusion time we collected the effluent from the stomach and measure intragastric pH in this fluid following a protocol that we have used in the past.

isolated glands = test system: isolated glands
Method: In this series of studies Rats were given free access to water and normal rat chow for a period of 5 days. In one group 30 μM ZnSO4.7H2O was added to the drinking water so that the animals are getting a constant exposure of ZnSO4.7H2O. At the end of the 5 day period the animals were sacrificed and the stomach removed. We examined how these glands performed to addition of a secretagogue as previously defined in Protocol 1. In the second group we repeated the study giving 3 μM ZnSO4.7H2O for the 5 day period while allowing normal access to food and water.

[1] = listed as zinc sulfate heptahydate

## O.O.O.O.O.O.O.O=S(=O)([O-])[O-].[Zn+2] [zinc sulfate heptahydrate]
Isolated gastric glands; about 0.3 μM to about 300 μM, more often about 3 μM to about 30 μM
  inhibiting acid secretion in the stomach: almost complete inhibition
Isolated gastric glands; dose of 0.03 μM
  reduction in secretagogue induced proton secretion (proton extrusion, acid production): p<0.03 significant reduction
Isolated gastric glands; dose of 0.03 μM, listed as ZnSO4.7H2O
  reduction in secretagogue induced proton secretion (proton extrusion, acid production): modest yet significant inhibition of acid secretion (p<0.03)
Isolated gastric glands; doses from 300 to 0.3 μM
  reduction in secretagogue induced proton secretion (proton extrusion, acid production): significant p<0.0001 reduction
Isolated gastric glands; doses from 300 to 0.3 μM, listed as ZnSO4.7H2O
  reduction in secretagogue induced proton secretion (proton extrusion, acid production): highly significant inhibition of proton extrusion (p<0.0001)
Isolated gastric glands; listed as ZnSO4.7H2O
  inhibitory effect on secretagogue induced acid secretion, in words: potent inhibitor
Isolated gastric glands; [1]
  inhibitory effect on secretagogue induced acid secretion, in words: abolishing the activity of the gastric H^+,K^+-ATPase
Isolated human glands; doses of 300 μM and 3 μM, Carbachol, means from 5 human samples
  inhibition of proton extrusion (acid secretion): highly significant inhibition of proton extrusion (p<0.0001)
Isolated human glands; listed as ZnSO4.7H2O
  inhibitory effect on secretagogue induced acid secretion, in words: potent inhibitor
Isolated human glands; [1]
  inhibitory effect on secretagogue induced acid secretion, in words: abolishing the activity of the gastric H^+,K^+-ATPase
Isolated stomachs; 3 μM, listed as ZnSO4Heptahydrate
  elevation in gastric pH: ≥ 1 pH unit
Isolated stomachs; 3 μM, listed as ZnSO4.7H2O
  elevation in gastric pH: 1 pH unit
Isolated stomachs; 30 μM, listed as ZnSO4Heptahydrate
  elevation in gastric pH: ≥ 1 pH unit
Isolated stomachs; 30 μM, listed as ZnSO4.7H2O
  elevation in gastric pH: 1 pH unit
Isolated glands; 3 μM in drinking water for 7 days, versus blank water
  basal acid secretion in the gland: slightly higher than blank water
Isolated glands; 3 μM in drinking water for 7 days, versus matched controls
  Carbachol (secretagogue) induced acid secretion: marked suppression
Isolated glands; 30 μM, 1 week ad lib access
  basal acid secretion in the gland: no basal acid secretion
  secretagogue (carbachol) induced acid secretion in the gland: no effect
